Measurements reported in patent US20260108514A1, “METHOD OF INHIBITING EPITHELIAL-MESENCHYMAL TRANSITION AND CANCER METASTASIS” (Agency for Science, Technology and Research, priority 2022, published 2026).
Counter-ions that a name gives are not always drawn.

Key:
[1] = system: HMLE-ZEB1 cells (CDH1prom-luc reporter, Dox-induced ZEB1 driven EMT); experiment: Dual-Glo luciferase CDH1prom-luc reporter screen of LOPAC and bioactive lipid library; assay type: cell-based; conditions: ratio Firefly (CDH1prom-luc) / Renilla luciferase, normalized to DMSO = 1; primary screen
Excerpt: FIG. 1: Design of a cell-based reporter assay. Doxycycline (Dox)-induced ZEB1 driven EMT (HMLE-ZEB1 cells) was used to conduct high-throughput screen for identifying inhibitors of epithelial-mesenchymal transition.
A) Dual-Glo luciferase assay to test gene promoters that include CD44, CD166, CDH1 and SERPINE1 in Dox-induced HMLE-ZEB1 cells. Data are represented as ratio of mean Firefly luciferase (FF) and Renilla luciferase (Ren) readings; n=3. B) Dual-glo Luciferase assay of HMLE-ZEB1 screened with LOPAC library. Data are represented as ratio of mean Firefly luciferase (FF) and Renilla luciferase (Ren) readings, n=3. Hits are circled in red. C) Average Z-score of Dual-glo Luciferase assay in HMLE-ZEB1 cells screened with LOPAC library; n=4. D) Validation of screening hits by Dual-glo Luciferase assay in HMLE-ZEB1 screened with LOPAC library by primary and secondary screens. E) Hits from secondary screen validated at different concentrations 5, 1.66, 0.55, 0.18 and 0.06 μM. N=3 F) Validation of the screening hits by CDH1 gene expression. n=3. G) Top, Phase-contrast images of morphological changes of HMLE-ZEB1 cells in DMSO and Dox-treated cells in presence or absence of Kenpaullone (0.25 μM) (DMSO, Dox, Ken, and Dox+Ken). Scale represents 100 μm. Second, Immunofluorescence staining of epithelial marker E-Cadherin (ECAD) and mesenchymal marker Vimentin in DMSO, Dox, Ken and Dox+Ken treated cells. Scale represents 50 μm. Bottom, Fluorescence activated sorting analysis (FACS) of CD44 and CD24 staining in Dox induced HMLE-ZEB1 cells in presence or absence of Ken. Numbers within graph represent percentages of gated cells indicating CD44high CD24low (above) and CD44lowCD24high cells (below). H) TdTomato-labelled MCF7-SLUG+SOX9 cells that were injected orthotopically into the mammary fat pads and induced by Doxycycline (+Dox) to express SLUG and SOX9 to promote metastasis in shControl and shGSK3β cells. Top, Representative fluorescence images of whole-mount of lung and second, histology of lung sections. Scale bar represents 100 μm. Third, Tumors were stained for GSK3β and counterstained with hematoxylin. Scale bar represents 100 μm. Fourth, primary tumors were also stained for E-cadherin, Fibronectin and DAPI. Scale bar represents 50 μm. n=3-5 mice for each group. I) Total number of metastasis as counted from whole mount of lung in mice implanted with in shControl and shGSK3β cells. n=3-5 for each group. **P<0.01 and ***P<0.001 as determined by as determined by one-way ANOVA with Dunnet's multiple comparison test. All data are presented as mean+/−SEM. *P<0.05, **P<0.01, ***P<0.001 and ****P<0.0001, not significant (ns) as determined by unpaired two-tailed t-test unless otherwise stated.
FIG. 3: Identification of inhibitors of epithelial-mesenchymal transition from high-throughput screening of bioactive lipid library with the screening platform. A) Dual-glo Luciferase assay of HMLE-ZEB1 screened with bioactive lipid library. Data are represented as ratio of mean Firefly luciferase (FF) and Renilla luciferase (Ren) readings, n=3. Hits are circled in red. B) Average Z-score of Dual-glo Luciferase assay in HMLE-ZEB1 cells screened with bioactive lipid library; n=4. Compounds shown in red indicates top hits. C) Protein expression of EMT markers E-cadherin, Fibronectin Vimentin and Snail in DMSO and 4-OHT induced cells treated with and without Cay10603 (10 nM) in HMLE-TWIST. GAPDH was used as a loading control. D) (First)Morphological evidence and (second) Fluorescence activated sorting analysis (FACS) of CD44 and CD24 staining in DMSO, 4-OHT, CAY10603 and 4-OHT+CAY10603 treated cells. Numbers within graph represent percentages of gated cells indicating CD44highCD24low (above) and CD44lowCD24high cells (below). E) Representative bright-field images and quantification of DMSO,4-OHT, CAY,4-OHT+CAY treated cells as shown by of scratch wound migration assay before and after 6 h of scratch in presence or absence of 4-OHT-induced EMT. […]

MCF7-SLUG+SOX9 cells = experiment: MCF7-SLUG+SOX9 orthotopic xenograft, EMT-dependent lung metastasis; assay type: in vivo, NSG mice
Excerpt: FIG. 3: Identification of inhibitors of epithelial-mesenchymal transition from high-throughput screening of bioactive lipid library with the screening platform. A) Dual-glo Luciferase assay of HMLE-ZEB1 screened with bioactive lipid library. Data are represented as ratio of mean Firefly luciferase (FF) and Renilla luciferase (Ren) readings, n=3. Hits are circled in red. B) Average Z-score of Dual-glo Luciferase assay in HMLE-ZEB1 cells screened with bioactive lipid library; n=4. Compounds shown in red indicates top hits. C) Protein expression of EMT markers E-cadherin, Fibronectin Vimentin and Snail in DMSO and 4-OHT induced cells treated with and without Cay10603 (10 nM) in HMLE-TWIST. GAPDH was used as a loading control. D) (First)Morphological evidence and (second) Fluorescence activated sorting analysis (FACS) of CD44 and CD24 staining in DMSO, 4-OHT, CAY10603 and 4-OHT+CAY10603 treated cells. Numbers within graph represent percentages of gated cells indicating CD44highCD24low (above) and CD44lowCD24high cells (below). E) Representative bright-field images and quantification of DMSO,4-OHT, CAY,4-OHT+CAY treated cells as shown by of scratch wound migration assay before and after 6 h of scratch in presence or absence of 4-OHT-induced EMT. Images were taken at 4× magnification. Scale bar represents 100 μm. F) (First) Representative images of whole-mount fluorescence lung image and (Second) histology of lung sections. Scale bar represents 100 μm. (Third)Tumors were stained for HDAC6 and counterstained with hematoxylin. Scale bar represents 100 μm. (Fourth) Primary tumors were also stained for E-cadherin, Fibronectin and DAPI. Scale bar represents 50 μm. n=4 mice for each group. G) Total number of metastasis as counted from whole mount of lung with −Dox, +Dox and ACY-1215+Dox treatment. n=3-4 for each group. **P<0.01 as determined by as determined by one-way ANOVA with Dunnet's multiple comparison test. All data are presented as mean+/−SEM. *P<0.05, **P<0.01, ***P<0.001 and ****P<0.0001, not significant (ns) as determined by unpaired two-tailed t-test unless otherwise stated.
FIG. 4. Disruption of microtubule depolymerization through HDAC6 inhibition and GSK3β inhibition restricts EMT. A) Top, Phase-contrast images of morphological changes in DMSO and 4-OHT induced cells treated with Ken, ACY-1215 and combination of both in HMLE-TWIST. Arrows represent cells growing as epithelial clusters. Scale represents 100 μm. Second, Immunofluorescence staining of acetylated α-tubulin in DMSO, Ken+ACY-1215, 4-OHT, ACY-1215+4-OHT, Ken+4-OHT and Ken+ACY-1215+4-OHT treated cells. Scale represents 50 μm. (Third) Fluorescence activated sorting analysis (FACS) of CD44 and CD24 staining in DMSO, Ken+ACY-1215, 4-OHT, ACY-1215+4-OHT, Ken+4-OHT and Ken+ACY-1215+4-OHT treated cells. […] C) Quantification of protein expression for DMSO, Ken+ACY, 4-OHT, ACY+4-OHT, Ken+4-OHT and Ken+ACY+4-OHT treated HMLE-TWIST cells (n=3). […] E) Quantification of percentage area closure in DMSO, Ken+ACY-1215, 4-OHT, ACY-1215+4-OHT, Ken+4-OHT and Ken+ACY-1215+4-OHT treated HMLE-TWIST cells. Graph represents mean+/−SEM of n=4. *P<0.05 and **P<0.01 as determined by unpaired t-test (two-tailed) by Welch's correction. F) Total number of metastasis as counted from whole mount of lung in mice implanted with shControl and shGSK3β cells treated with ACY-1215 in presence or absence of Dox treatment (n=3-4). […]

HMLE-TWIST cells [2] = experiment: Scratch wound migration assay in 4-OHT-induced EMT; assay type: cell-based; conditions: 6 h after scratch
Excerpt: (§1) FIG. 3: Identification of inhibitors of epithelial-mesenchymal transition from high-throughput screening of bioactive lipid library with the screening platform. A) Dual-glo Luciferase assay of HMLE-ZEB1 screened with bioactive lipid library. Data are represented as ratio of mean Firefly luciferase (FF) and Renilla luciferase (Ren) readings, n=3. Hits are circled in red. B) Average Z-score of Dual-glo Luciferase assay in HMLE-ZEB1 cells screened with bioactive lipid library; n=4. Compounds shown in red indicates top hits. C) Protein expression of EMT markers E-cadherin, Fibronectin Vimentin and Snail in DMSO and 4-OHT induced cells treated with and without Cay10603 (10 nM) in HMLE-TWIST. […] D) (First)Morphological evidence and (second) Fluorescence activated sorting analysis (FACS) of CD44 and CD24 staining in DMSO, 4-OHT, CAY10603 and 4-OHT+CAY10603 treated cells. […] E) Representative bright-field images and quantification of DMSO,4-OHT, CAY,4-OHT+CAY treated cells as shown by of scratch wound migration assay before and after 6 h of scratch in presence or absence of 4-OHT-induced EMT. […] F) (First) Representative images of whole-mount fluorescence lung image and (Second) histology of lung sections. […] All data are presented as mean+/−SEM. *P<0.05, **P<0.01, ***P<0.001 and ****P<0.0001, not significant (ns) as determined by unpaired two-tailed t-test unless otherwise stated. […]

HMLE-TWIST cells [3] = experiment: TWIST (4-OHT)-induced EMT: markers, morphology, CD44/CD24 FACS, acetylated tubulin; assay type: cell-based; conditions: 4-OHT induced HMLE-TWIST
Excerpt: as §1

HMLE-ZEB1 cells = experiment: Validation of ZEB1-induced EMT inhibition (morphology); assay type: cell-based; conditions: Dox-induced HMLE-ZEB1, Kenpaullone 0.25 μM
Excerpt: A) Dual-Glo luciferase assay to test gene promoters that include CD44, CD166, CDH1 and SERPINE1 in Dox-induced HMLE-ZEB1 cells. Data are represented as ratio of mean Firefly luciferase (FF) and Renilla luciferase (Ren) readings; n=3. B) Dual-glo Luciferase assay of HMLE-ZEB1 screened with LOPAC library. Data are represented as ratio of mean Firefly luciferase (FF) and Renilla luciferase (Ren) readings, n=3. Hits are circled in red. C) Average Z-score of Dual-glo Luciferase assay in HMLE-ZEB1 cells screened with LOPAC library; n=4. D) Validation of screening hits by Dual-glo Luciferase assay in HMLE-ZEB1 screened with LOPAC library by primary and secondary screens. […] Bottom, Fluorescence activated sorting analysis (FACS) of CD44 and CD24 staining in Dox induced HMLE-ZEB1 cells in presence or absence of Ken. […] Top, Representative fluorescence images of whole-mount of lung and second, histology of lung sections. […] I) Total number of metastasis as counted from whole mount of lung in mice implanted with in shControl and shGSK3β cells. n=3-5 for each group. **P<0.01 and ***P<0.001 as determined by as determined by one-way ANOVA with Dunnet's multiple comparison test. All data are presented as mean+/−SEM. *P<0.05, **P<0.01, ***P<0.001 and ****P<0.0001, not significant (ns) as determined by unpaired two-tailed t-test unless otherwise stated. […]

| Compound | DMSO normalized FF/RL(DMSO = 1) [1] | also measured |
| --- | --- | --- |
| CCCCCCCCCCCCCCCCCCOC[C@H](COP(=O)([O-])OCC[N+](C)(C)C)OC [2-O-methyl PAF C-18] | 0.35 | – |
| CCc1ccc(/C=C2/SC(=S)NC2=O)cc1 [10058-F4] | 0.5631 | – |
| O=C(CCCCCCNC(=O)c1cnc(N(c2ccccc2)c2ccccc2)nc1)NO [ACY-1215, ricolinostat] | – | lung metastatic lesions (MCF7-SLUG+SOX9 cells; ACY-1215 50 mg/kg i.p. + Dox vs Dox-fed mice, 10 weeks after doxycycline): significantly reduced lung metastatic lesions; metastatic lesions in the lungs, shControl group (MCF7-SLUG+SOX9 cells; shControl cells, Dox induction, ACY-1215 treatment): reduced; metastatic lesions in the lungs, shGSK3β group (MCF7-SLUG+SOX9 cells; shGSK3β cells, ACY-1215 treatment, compared to Dox-fed shControl mice): reduced metastatic lesions most dramatically; tumor burden (MCF7-SLUG+SOX9 cells; shGSK3β group treated with ACY-1215 vs Dox-fed shControl): non-significant changes in tumor burden; EMT activation in primary tumors (higher HDAC6 and Fibronectin, low E-Cadherin) (MCF7-SLUG+SOX9 cells; tumors of ACY-1215+Dox mice vs Dox-fed mice): strikingly absent |
| O=c1cc(-c2ccc(O)cc2)oc2cc(O)cc(O)c12 [Apigenin] | 0.5787 | – |
| Nc1ccc(-c2ccc3ccccc3n2)cc1 [BF-170 hydrochloride] | 0.5174 | – |
| CC(C)(C)OC(=O)Nc1ccc(-c2cc(C(=O)NCCCCCCC(=O)NO)no2)cc1 [CAY 10603] | 0.33 | acquisition of migration ability, wound-healing assay (HMLE-TWIST cells [2]): blocked the acquisition of migration ability; epithelial morphology and CD44 expression (FACS) (HMLE-TWIST cells [3]): retained epithelial morphology along with the block in gain of CD44 expression to some extent; inhibition of TWIST-driven EMT (retention of E-cadherin, no gain of mesenchymal markers) (HMLE-TWIST cells [3]; Cay10603 10 nM, protein expression): able to inhibit EMT |
| Cc1cc(O)c2c(c1)C(=O)c1cc(O)cc(O)c1C2=O [Emodin] | 0.6268 | – |
| O=C1Cc2c([nH]c3ccc(Br)cc23)-c2ccccc2N1 [Kenpaullone] | 0.8715 | inhibition of ZEB1-induced EMT (retention of epithelial morphology) (HMLE-ZEB1 cells): able to inhibit ZEB1-induced EMT |
| COc1cccc(-c2cc(=O)c3ccccc3o2)c1N [PD 98,059] | 0.4592 | – |
| Oc1cc(O)cc(/C=C/c2ccc(O)c(O)c2)c1 [Piceatannol] | 0.6253 | – |
| Cc1ccc(C(=O)Cn2c3c(sc2=N)CCCC3)cc1 [Pifithrin-α] | 0.348 | – |
| O=c1c2ccccc2nc2n1CCc1c-2[nH]c2ccccc12 [Rutaecarpine] | 0.5597 | – |
| COc1ccc(/C=C/C(=O)Nc2ccccc2C(=O)O)cc1OC [Tranilast] | 0.4527 | – |
